Tested on: cat flea (Ctenocephalides felis) adults [ネコノミ(Ctenocephalides felis)成虫]
Test: Efficacy test against cat flea (Test Example 1), glass container film contact
Type: in vivo
Conditions: 96 h, 10μg/cm2, 5 adults (mixed sex), 25℃, 4 days, duplicate, read-out: efficacy (number of insects with abnormal behaviour due to compound / number released × 100)

Row | SMILES | pest or weed control at 10 µg/cm2
1 | CCN(C(=O)[C@H](C)CSC)c1cn(-c2cccnc2)nc1Cl [1−048(S)−(−), (S)−(−)−N−{3−クロロ−1−(ピリジン−3−イル)−1H−ピラゾール−4−イル}−N−エチル−2−メチル−3−(メチルチオ)プロパンアミド] | ≥ 80%
2 | C[C@H](CS(C)(=O)=O)C(=O)N(C)c1cn(-c2cccnc2)nc1Cl [1−054(S)−(+)] | ≥ 80%
3 | CSCC(C)C(=O)Nc1cn(-c2cccnc2)nc1Cl (stereo not shown) [1−074] | ≥ 80%
4 | CCOCC(=O)N(CC)c1cn(-c2cccnc2)nc1Cl [1−220] | ≥ 80%
5 | CCN(C(=O)C(C)SC(C)=O)c1cn(-c2cccnc2)nc1Cl (stereo not shown) [1−245] | ≥ 80%
6 | CCNC(=O)NCC(=O)N(CC)c1cn(-c2cccnc2)nc1Cl [1−375] | ≥ 80%
7 | CCN(C(=O)CSCC(OC)OC)c1cn(-c2cccnc2)nc1Cl [1−434] | ≥ 80%
8 | CCN(C(=O)C(=O)Nc1ccccc1)c1cn(-c2cccnc2)nc1Cl [1−464] | ≥ 80%
9 | CCc1nn(-c2cccnc2)cc1N(CC)C(=O)C(C)CSC (stereo not shown) [1−484] | ≥ 80%
10 | CC(CS(C)(=O)=O)C(=O)Nc1cn(-c2cccnc2)nc1Cl (stereo not shown) [1−494] | ≥ 80%
11 | CCN(C(=O)NCC(F)(F)F)c1cn(-c2cccnc2)nc1Cl [1−501] | ≥ 80%
12 | CCN(C(=O)CCCSC)c1cn(-c2cccnc2)nc1Cl [1−520] | ≥ 80%
13 | CC(C)(C)OC(=O)N(CC#N)c1cn(-c2cccnc2)nc1Cl [1−522] | ≥ 80%
14 | CCN(C(=O)C(C)CSC)c1cn(-c2cccnc2)nc1C(F)(F)F (stereo not shown) [1−523] | ≥ 80%
15 | CCN(C(=O)CCC[S+](C)[O-])c1cn(-c2cccnc2)nc1Cl (stereo not shown) [1−527] | ≥ 80%
16 | CCN(C(=O)CCCS(C)(=O)=O)c1cn(-c2cccnc2)nc1Cl [1−528] | ≥ 80%
17 | CCNC(=S)Nc1cn(-c2cccnc2)nc1C [1−549] | ≥ 80%
18 | CCNC(=O)N(C)c1cn(-c2cccnc2)nc1Cl [1−551] | ≥ 80%
19 | CNC(=S)Nc1cn(-c2cccnc2)nc1Cl [1−552] | ≥ 80%
20 | CC(C)NC(=S)Nc1cn(-c2cccnc2)nc1Cl [1−554] | ≥ 80%
21 | CCN(C(N)=O)c1cn(-c2cccnc2)nc1Cl [1−572] | ≥ 80%
22 | CN(C(=O)NCC(F)(F)F)c1cn(-c2cccnc2)nc1Br [1−586] | ≥ 80%
23 | CCN(C(=O)NCC(F)(F)F)c1cn(-c2cccnc2)nc1Br [1−587] | ≥ 80%
24 | C=CCNC(=O)N(CC)c1cn(-c2cccnc2)nc1Cl [1−595] | ≥ 80%
25 | CCN(C(=O)C(C)CS(=O)(=O)N(C)C)c1cn(-c2cccnc2)nc1Cl (stereo not shown) [1−596] | ≥ 80%

Same assay, conditions: 96 h, read-out: efficacy (number of insects with abnormal behaviour due to compound / number released × 100)

Row | SMILES | pest or weed control at 10 µg/cm2
26 | O=C(NCCCl)Nc1cn(-c2cccnc2)nc1Cl [1−593] | ≥ 80%

Tested on: American dog tick (Dermacentor variabilis) first nymphs [American dog tick(Dermacentor variabilis)第1若虫]
Test: Efficacy test against American dog tick (Test Example 2), glass container film contact
Type: in vivo
Conditions: 96 h, 10μg/cm2, 5 first nymphs (mixed sex), 25℃, 4 days, duplicate, read-out: efficacy (number with abnormal behaviour due to compound / number released × 100)

Row | SMILES | pest or weed control at 10 µg/cm2
27 | CON=C(CSC)C(=O)N(C)c1cn(-c2cccnc2)nc1Cl (single isomer, unassigned) [1−142] | ≥ 80%
28 | CCON=C(CSC)C(=O)N(CC)c1cn(-c2cccnc2)nc1Cl (single isomer, unassigned) [1−157] | ≥ 80%
29 | CSCCC(=O)Nc1cnn(-c2cccnc2)c1 [1−006] | ≥ 80%
30 | CSCCC(=O)N(C)c1cn(-c2cccnc2)nc1C [1−018, N−メチル−N−{3−メチル−1−(ピリジン−3−イル)−1H−ピラゾール−4−イル}−3−(メチルチオ)プロパンアミド] | ≥ 80%
31 | Cc1nn(-c2cccnc2)cc1NC(=O)NCC(F)(F)F [1−032] | ≥ 80%
32 | CCN(C(=O)CCSC)c1cn(-c2cccnc2)nc1Cl [1−033] | ≥ 80%
33 | CS(=O)(=O)C1CCCN(c2cnn(-c3cccnc3)c2)C1=O (stereo not shown) [1−035] | ≥ 80%
34 | CCN(C(=O)CCSC)c1cnn(-c2cccnc2)c1 [1−044] | ≥ 80%
35 | CC(C)(C)OC(=O)Nc1cn(-c2cccnc2)nc1Cl [1−046, tert−ブチル 3−クロロ−1−(ピリジン−3−イル)−1H−ピラゾール−4−イルカーバメート] | ≥ 80%
36 | CCN(C(=O)OC(C)(C)C)c1cn(-c2cccnc2)nc1Cl [1−056, tert−ブチル 3−クロロ−1−(ピリジン−3−イル)−1H−ピラゾール−4−イル(エチル)カーバメート] | ≥ 80%
37 | CSCCC(=O)Nc1cn(-c2cccnc2)nc1Cl [1−058] | ≥ 80%
38 | CCN(C(=O)NCCSC)c1cn(-c2cccnc2)nc1C [1−060] | ≥ 80%
39 | CCCN(C(=O)CCSC)c1cn(-c2cccnc2)nc1Cl [1−063] | ≥ 80%
40 | C=CCN(C(=O)CCSC)c1cn(-c2cccnc2)nc1Cl [1−064] | ≥ 80%
41 | CCCN(C(=O)C(C)CSC)c1cn(-c2cccnc2)nc1Cl (stereo not shown) [1−066] | ≥ 80%
42 | CCN(C(=O)COCSC)c1cn(-c2cccnc2)nc1Cl [1−067] | ≥ 80%
43 | CCC(CSC)C(=O)N(C)c1cn(-c2cccnc2)nc1Cl (stereo not shown) [1−084] | ≥ 80%
44 | COCN(C(=O)C(C)CSC)c1cn(-c2cccnc2)nc1Cl (stereo not shown) [1−086] | ≥ 80%
45 | Cc1nn(-c2cccnc2)cc1N(C)C(N)=O [1−094] | ≥ 80%
46 | CCSCC(=O)N(CC)c1cn(-c2cccnc2)nc1Cl [1−107] | ≥ 80%
47 | CCN(C(=O)CC[S+](C)[O-])c1cn(-c2cccnc2)nc1C (stereo not shown) [1−110] | ≥ 80%
48 | CCN(C(=O)CCSC(C)C)c1cn(-c2cccnc2)nc1Cl [1−123] | ≥ 80%
49 | CCN(C(=O)CCSCC(F)(F)F)c1cn(-c2cccnc2)nc1Cl [1−124] | ≥ 80%
50 | C=C1CCN(c2cn(-c3cccnc3)nc2Cl)C1=O [1−133, 1−{3−クロロ−1−(ピリジン−3−イル)−1H−ピラゾール−4−イル}−3−メチレンピロリジン−2−オン] | ≥ 80%
51 | CSCC(C)(C)C(=O)N(C)c1cn(-c2cccnc2)nc1Cl [1−134, N−{3−クロロ−1−(ピリジン−3−イル)−1H−ピラゾール−4−イル}−N,2,2−トリメチル−3−(メチルチオ)プロパンアミド] | ≥ 80%
52 | CC(=O)N(C)c1cn(-c2cccnc2)nc1Cl [1−148] | ≥ 80%
53 | CCN(C(C)=O)c1cn(-c2cccnc2)nc1Cl [1−149] | ≥ 80%
54 | CCCC(=O)N(CC)c1cn(-c2cccnc2)nc1Cl [1−151] | ≥ 80%

Row | SMILES | pest or weed control at 10 µg/cm2
55 | C=CC(=O)N(CC)c1cn(-c2cccnc2)nc1Cl [1−152, N−{3−クロロ−1−(ピリジン−3−イル)−1H−ピラゾール−4−イル}−N−エチルアクリルアミド] | ≥ 80%
56 | CCN(C(=O)CC[S+]([O-])CC(F)(F)F)c1cn(-c2cccnc2)nc1Cl (stereo not shown) [1−154] | ≥ 80%
57 | CCN(C(=O)CCS(=O)(=O)CC(F)(F)F)c1cn(-c2cccnc2)nc1Cl [1−155] | ≥ 80%
58 | O=C(NCC(F)(F)F)Nc1cn(-c2cccnc2)nc1Cl [1−158] | ≥ 80%
59 | CCN(C(=O)C(CSC)=NOC(C)C)c1cn(-c2cccnc2)nc1Cl [1−172] | ≥ 80%
60 | CCCON=C(CSC)C(=O)N(CC)c1cn(-c2cccnc2)nc1Cl [1−173] | ≥ 80%
61 | CCCCON=C(CSC)C(=O)N(CC)c1cn(-c2cccnc2)nc1Cl [1−184] | ≥ 80%
62 | CSCCN(C(C)=O)c1cn(-c2cccnc2)nc1Cl [1−186] | ≥ 80%
63 | CC(C)(C)OC(=O)Nc1cn(-c2cccnc2)nc1Br [1−188, tert−ブチル 3−ブロモ−1−(ピリジン−3−イル)−1H−ピラゾール−4−イルカーバメート] | ≥ 80%
64 | CCN(C(=O)C(C[S+](C)[O-])OC)c1cn(-c2cccnc2)nc1Cl (stereo not shown) [1−199] | ≥ 80%
65 | CCON=C(C[S+](C)[O-])C(=O)N(CC)c1cn(-c2cccnc2)nc1Cl (stereo not shown) [1−208] | ≥ 80%
66 | CCN(C(=O)C(CSC)c1ccccc1)c1cn(-c2cccnc2)nc1Cl (stereo not shown) [1−216] | ≥ 80%
67 | C=CCON=C(CSC)C(=O)N(CC)c1cn(-c2cccnc2)nc1Cl [1−222] | ≥ 80%
68 | CCN(C(=O)C(C)SC(C)C)c1cn(-c2cccnc2)nc1Cl (stereo not shown) [1−248] | ≥ 80%
69 | CON=C(COCC(F)(F)F)C(=O)N(C)c1cn(-c2cccnc2)nc1Cl [1−273] | ≥ 80%
70 | CCN(C(=O)CC(=NOC)C(F)(F)F)c1cn(-c2cccnc2)nc1Cl [1−303] | ≥ 80%
71 | CC(C)(C)OC(=O)N(CC(F)(F)F)c1cn(-c2cccnc2)nc1Cl [1−324] | ≥ 80%
72 | CC(C)(C)OC(=O)N(CC1CC1)c1cn(-c2cccnc2)nc1Cl [1−343] | ≥ 80%
73 | CCSC(C)C(=NOC)Nc1cn(-c2cccnc2)nc1Cl (stereo not shown) [1−356, N−{3−クロロ−1−(ピリジン−3−イル)−1H−ピラゾール−4−イル}−2−(エチルチオ)−N’−メトキシプロパンイミダミド] | ≥ 80%
74 | CCN(C(=O)CC(CSC)=NOC)c1cn(-c2cccnc2)nc1Cl [1−367] | ≥ 80%
75 | CCN(C(=O)OC(C)(C)C)c1cn(-c2cccnc2)nc1OC [1−395] | ≥ 80%
76 | CCN(C(=O)CNC(=O)C(F)(F)F)c1cn(-c2cccnc2)nc1Cl [1−409] | ≥ 80%
77 | CCN(C(=O)CCC(F)=C(F)F)c1cn(-c2cccnc2)nc1Cl [1−418] | ≥ 80%
78 | CCN(C(=O)COC(C)(C)C)c1cn(-c2cccnc2)nc1Cl [1−439] | ≥ 80%
79 | CCSC(C)C(=S)Nc1cnn(-c2cccnc2)c1 (stereo not shown) [1−480] | ≥ 80%
80 | CCN(C(=O)C(C)CS(C)(=O)=O)c1cn(-c2cccnc2)nc1C (stereo not shown) [1−490] | ≥ 80%
81 | CSCC(=O)N(C)C(C)=Nc1cn(-c2cccnc2)nc1C [3−004, N−メチル−N−[1−{3−メチル−1−(ピリジン−3−イル)−1H−ピラゾール−4−イルイミノ}エチル]−2−(メチルチオ)アセタミド] | ≥ 80%

Same assay, conditions: 96 h, read-out: efficacy (number with abnormal behaviour due to compound / number released × 100)

Row | SMILES | pest or weed control at 10 µg/cm2
82 | CCN(C(=O)C(CSC)=NOCC[Si](C)(C)C)c1cn(-c2cccnc2)nc1Cl [1−268] | ≥ 80%
